Data published in patent US9844543B2, “Method of treating or preventing hyperlipidemia with caffeamide derivatives” (priority 2015, dated 2017).

Key:
Format in all cases: in vivo, C57BL/6J mice
[1] = Body weight, weight gain and absolute tissue weights in high-fat diet-fed mice
Method: (§1) All animal procedures were performed as per guidelines provided by the Institutional Animal Care and Use Committee of Central Taiwan University of Science and Technology. Firstly, C57BL/6J mice (4-5 weeks old) were purchased from the National Laboratory Animal Breeding and Research Center, National Science Council, Taiwan, and were maintained on a 12-hour light/dark cycle (light cycle: 7 a.m. to 7 p.m.). Seven days after acclimation, the C57BL/6J mice were divided randomly into two groups: the control group (CON, n=9) was fed with low-fat diet (Diet 12450B, Research Diets, Inc., New Brunswick, N.J. 08901, USA), whereas the experimental group (n=36) was fed with a 45% high-fat diet (Diet 12451, Research Diets, Inc., New Brunswick, N.J. 08901, USA) for 12 weeks. The low-fat diet was composed of protein 20%, carbohydrate 70% and fat 10%, whereas the high-fat diet was composed of protein 20%, carbohydrate 35%, and fat 45% (of total energy, % kcal). After 8-week diet-induction period, the high-fat treated mice were randomly subdivided into four groups (n=9 per group), namely, control group (CON), high-fat control group (HF), TS group (including T1 and T2, representing mice treated with the compound of the present invention using a dosage of 10 mg/kg/day and 20 mg/kg/day, respectively), rosiglitazone treated group (Rosi; 1% methylcellulose 10 mg/kg body weight, obtained from GlaxoSmithKline, product number: BRL49653 C). TS and Rosi group were administrated through oral gavage one time per day from the 9th to the 12th week of the experiment while the mice were still on the high-fat diet. On the other hand, CON and HF groups were treated with vehicle only. The body weight was measured weekly throughout the experimentation. By the end of the experimentation, food was deprived from the mice (from 10 p.m. to 10 a.m.) On the next day (the 85th day), all mice were sacrificed for blood and tissue collection and analysis. The mice were untreated with TS or Rosi at the 85th day. Livers and white adipose tissue (WATs, including epididymal mesenteric, and retroperitoneal WAT) were excised according to the defined anatomical landmarks, and the weight of the tissues was measured. Tissues were immediately frozen using liqid nitrogen and then kept at −80° C. for the analysis of target gene expression. Heparin (30 units/mL, Sigma) was added into blood sample. Plasma samples were collected by centrifugation at […] for 15 minutes at 4° C. The separation of the plasma was finished within 30 minutes. Plasma was obtained for leptin assay.
Body weight of mice was monitored and measured daily at the same time throughout the experimentation. The differences between the body weight of the next day and the former day is defined as body weight gain. The pellet food was weighed and followed by being placed in the cage food container. Unconsumed pellet high-fat food was discarded each day and fresh pellet of high-fat diet was provided to ensure consistent food quality throughout the experimentation. The high-fat food was stored at 4° C.

[2] = Blood parameters assay (TG, FFA, TC, adiponectin, leptin) in high-fat diet-fed mice; settings: 0.01 g/kg/day oral
Method: as §1, with “Seven days after acclimation, the C57BL/6J mice were divided randomly into two groups: the control group (CON, n=9) was fed with low-fat diet (Diet 12450B, Research Diets, Inc., New Brunswick, N.J. 08901, USA), whereas the experimental group (n=36) was fed with a 45% high-fat diet (Diet 12451, Research Diets, Inc., New Brunswick, N.J. 08901, USA) for 12 weeks. The low-fat diet was composed of protein 20%, carbohydrate 70% and fat 10%, whereas the high-fat diet was composed of protein 20%, carbohydrate 35%, and fat 45% (of total energy, % kcal).” left out
Blood samples (0.8 mL) were collected from the retro-orbital sinus of fasting mice and the plasma triglycerides (TG), total cholesterol (TC), and free fatty acids (FFA) were analyzed using commercial assay kits according to the manufacture's directions (Triglycerides-E test, Cholesterol-E test, and FFA-C test, Wako Pure Chemical, Osaka, Japan).
The levels of adiponectin and leptin were analyzed by ELISA using commercial assay kits according to manufacture's directions (mouse/rat adiponectin ELISA kit, B-Bridege International, GmbH, Germany, and mouse leptin ELISA kit, Morinaga, Yokohama, Japan).

[3] = Measurement of hepatic lipids in high-fat diet-fed mice; settings: 0.01 g/kg/day oral, week 12
Method: (§2) All animal procedures were performed as per guidelines provided by the Institutional Animal Care and Use Committee of Central Taiwan University of Science and Technology. Firstly, C57BL/6J mice (4-5 weeks old) were purchased from the National Laboratory Animal Breeding and Research Center, National Science Council, Taiwan, and were maintained on a 12-hour light/dark cycle (light cycle: 7 a.m. to 7 p.m.). Seven days after acclimation, the C57BL/6J mice were divided randomly into two groups: the control group (CON, n=9) was fed with low-fat diet (Diet 12450B, Research Diets, Inc., New Brunswick, N.J. 08901, USA), whereas the experimental group (n=36) was fed with a 45% high-fat diet (Diet 12451, Research Diets, Inc., New Brunswick, N.J. 08901, USA) for 12 weeks. […] The body weight was measured weekly throughout the experimentation. […] Livers and white adipose tissue (WATs, including epididymal mesenteric, and retroperitoneal WAT) were excised according to the defined anatomical landmarks, and the weight of the tissues was measured. […]
For hepatic lipid extraction, a 0.375 g liver samples were homogenized with 1 mL distill water for 5 minutes. The dried pellet was finally resuspended in 0.5 mL ethanol and analyzed using a triglycerides kit as used for analyzing the serum lipids set forth above.

[4] = tested on: adipocytes from epididymal white adipose tissue; test: Histopathology of epididymal white adipose tissue (adipocyte size); settings: high-fat diet mice, 10 mg/kg/day oral; HF 6765.87, CON 3263.78
Method: as §2, with “weeks. The low-fat diet was composed of protein 20%, carbohydrate 70% and fat 10%, whereas the high-fat diet was composed of protein 20%, carbohydrate 35%, and fat 45% (of total energy, % kcal).” for “weeks.”

[5] = 0.01 g/kg/day oral gavage weeks 9-12

CN(CCOc1ccc(CC2SC(=O)NC2=O)cc1)c1ccccn1 (centres unmarked) [Rosi, rosiglitazone]
Absolute tissue weight BAT [1, 5]: 0.210 ± 0.023 g
Absolute tissue weight MWAT [1, 5]: 0.238 ± 0.033 g
Absolute tissue weight RWAT [1, 5]: 0.334 ± 0.057 g
Absolute tissue weight Visceral fat [1, 5]: 1.330 ± 0.138 g
Absolute tissue weight EWAT ([1]; 0.01 g/kg/day oral gavage weeks 9-12, mean ± S.E. n=9): 1.003 ± 0.103 g
Weight gain ([1]; 0.01 g/kg/day oral gavage weeks 9-12, week 12): 0.91 ± 1.45 g
Blood Adiponectin ([2]; week 12): 7.51 ± 0.53 ng/mL
Blood FFA ([2]; week 12): 1.52 ± 0.16 meq/L
Blood Leptin ([2]; week 12): 2.063 ± 0.111 µg/mL
Blood TC ([2]; week 12): 134.9 ± 3.5 mg/dL
Blood TG ([2]; week 12, fasting): 81.8 ± 5.8 mg/dL
Liver lipids: Total lipid [3]: 60.2 ± 5.4 mg/g
Liver lipids: Triacylglycerol [3]: 42.6 ± 5.8 µmol/g
average area of the cut of the adipocytes (epididymal white adipose tissue) [4]: 4600 µm²
